The text below walks through data of ChEMBL document CHEMBL3507680, “University of Dundee, Gates Library screen for HepG2 cell viability”.

This series in a line: Human HepG2 cell viability assay in 384 well format. The class given is toxicity, cell-based. On the set-up: dose 125 nL, time 70.5 hour; cytotoxicity at 70.5 h: concentration not given beside the values. As to conditions: HepG2 cells, read-out: Inhibition.
In the case of `Cc1cn(Cc2ccc(F)c(F)c2)nc1N`, the cytotoxicity at 70.5 h is 19.5%. In the case of `CC(=O)N1CCC(c2nccnc2Oc2ccccc2)CC1`, the cytotoxicity at 70.5 h is 1.62%. To `O=C(NCC1CCN(C(=O)c2ccoc2)CC1)c1ccccc1Br` belongs -0.695%; to `Cc1ccc(S(=O)(=O)N(C)c2ccsc2C(=O)NCC(C)C)cc1`, 45.4%; to `CCC(CNC(=O)Cc1c(C)noc1C)N1CCCC1` (stereo unspecified), -6.77%. In the case of `CN(C)C(=O)CN1C[C@@H]2CC[C@H](C1)N(Cc1cccc(Cl)c1Cl)C2`, the cytotoxicity at 70.5 h was 7.51%.

For the molecule `N#Cc1cccc(N2CCC3(CCC(=O)N(CC(N)=O)C3)CC2)n1`, the cytotoxicity at 70.5 h was -8.42%. Take `NCCO[C@H]1C[C@@H](O)C12CCN(Cc1c(F)cccc1F)CC2`: the cytotoxicity at 70.5 h is -7.05%. In the case of `CC(C)(C)NS(=O)(=O)c1ccc(NC(=O)C2CC2)cc1`, the cytotoxicity at 70.5 h stood at 7.98%. To `c1csc(-c2nc(CNCCn3cccn3)cs2)c1` belongs -7.37%. Turning to `c1cc(CNCc2cccc3c2OCCCO3)cc(Cn2cncn2)c1`, the cytotoxicity at 70.5 h was -8.37%. As for `O=C(NCc1ccc(-n2cncn2)nc1)N(CC1CCOC1)C1CC1` (stereo unspecified), the cytotoxicity at 70.5 h is -5.41%. As for `O=C(c1cc2ccccc2o1)N1CCN(Cn2cc(Cl)cn2)CC1`, the figure is -5.33%; as for `Cn1cc(C(=O)N2CCN(Cc3cscn3)CC2)ccc1=O`, 4.94%. As for `Cc1cccnc1NCCNC(=O)C1CCN(Cc2ccco2)CC1`, the figure is 9.3%. As for `CCN1CCc2[nH]cnc2C12CCN(C(=O)CCc1cccs1)CC2`, the figure is 6.97%; as for `O=C(Cc1cccc(F)c1)NCCNCc1cccnc1`, -4.1%. For `CC(=O)N(C)c1nc(CN2CCN(Cc3nccn3C)CC2)cs1`, the cytotoxicity at 70.5 h was determined as 10.2%.

Turning to `CCOc1ccc(S(=O)(=O)NCCc2ccc(N(C)C)cc2)cc1F`, the cytotoxicity at 70.5 h was -1.54%. Turning to `COc1ccc(C(=O)N2CCC(Oc3ccc(C)cc3)(C(=O)O)CC2)o1`, the cytotoxicity at 70.5 h stood at 0.709%.

`Cc1noc(CNc2ccc(CC(=O)N3CCSCC3)cc2)n1`: the cytotoxicity at 70.5 h was -5.52%. Turning to `CC(CN1CCOCC1)NCC1CCN(c2cnn(C)c(=O)c2)CC1` (stereo unspecified), the cytotoxicity at 70.5 h was -4.8%. Regarding `CC(C)(NC(=O)C1CCCN(C2CCCC2)C1)c1nnc(N)s1` (stereo unspecified), the cytotoxicity at 70.5 h is -3.27%. As for `COc1ncnc2c1CCN(c1cc(C(F)(F)F)ncn1)CC2`, the figure is -6.15%; as for `CCn1c(CC2CCN(C(=O)c3cc(C(C)C)n[nH]3)CC2)n[nH]c1=O`, -6.21%. As for `CN(CC(=O)N1CCN(CC(C)(C)O)CC1)c1ccc(Cl)cn1`, the cytotoxicity at 70.5 h is -17.3%. As for `CCCNC(=O)NC(=O)CN(CC(C)O)c1ccccc1` (stereo unspecified), the figure is -3.55%; as for `COCc1ccccc1C(=O)N1CCCC1Cn1nc(C)cc1C` (stereo unspecified), 0.418%; as for `COc1cc2cc3c(nc2cc1OC)OCCN(Cc1ccco1)C3`, 8.51%. `Cc1nn(C)c(Cl)c1C1CCCN1C(=O)c1ccc2nncn2c1` (stereo unspecified): the cytotoxicity at 70.5 h was 5.97%. As for `C=C(Br)CN(C)C1CCN(CCc2ccccn2)CC1`, the figure is -6.85%; as for `NCCC(=O)N1CCC2(CC1)CN(C(=O)Cc1cccc(Cl)c1)CCO2`, -15.5%; as for `Cc1ccc(CN2CC[C@H](c3nc4cccc(C(N)=O)c4[nH]3)C2)cc1`, 31.1%. Turning to `NC(=O)CN1CCC(c2cccc(Oc3ccccc3)n2)CC1`, the cytotoxicity at 70.5 h was -1.34%. Turning to `O=c1nc(CNc2ccccc2)[nH]n1Cc1ccccc1`, the cytotoxicity at 70.5 h was -13.1%. Consider `CN(Cc1cccc(Cl)c1)S(=O)(=O)N1CCOCC1`, for which the cytotoxicity at 70.5 h is 1.29%. As to `COc1cccc2c1ccn2CCC(=O)NCCCC(=O)O`, the cytotoxicity at 70.5 h was -3.23%. To `CC(C)CC(=O)N1C[C@H]2CCCN(S(=O)(=O)c3ccc(Cl)s3)[C@H]2C1` belongs 14.6%; to `CCc1nc(C2CCCN2C(=O)c2ccc3c(c2)nnn3C)no1` (stereo unspecified), 16.3%.

Regarding `CC(C)CN1C[C@H]2N(c3ncccn3)CCC[C@@]2(C(=O)NCC2CC2)C1`, the cytotoxicity at 70.5 h was -3.44%. As for `CCOC(=O)N1CCN(C(=O)CCn2cccc2)CC1`, the figure is 7.81%; as for `O=C(c1cnccn1)N1C[C@@H]2C[C@@H](c3nc(C4CC4)cs3)O[C@@H]2C1`, -1.34%; as for `CCc1nc(C2CCCN(C(=O)NCCOC)C2)no1` (stereo unspecified), 21.2%. To `CC(C)N1CCCCC1c1nc(N(C)C)ncc1I` (stereo unspecified) belongs 23.9%; to `OCCNc1nccc(-c2c[nH]nc2-c2ccco2)n1`, 4.01%. `CCOc1cc(/C=C/c2ncc(C(=O)O)s2)cc(Cl)c1OC`: the cytotoxicity at 70.5 h was 9.41%. Turning to `Cc1cc(C(N)=O)ccc1NC(=O)N1CCN(c2cccs2)CC1`, the cytotoxicity at 70.5 h was -12.4%. `O[C@@H]1C[C@@H](c2nc(Cc3ccccc3)no2)N(Cc2ncc[nH]2)C1`: the cytotoxicity at 70.5 h was 9.72%. To `COCC(O)CN1CC(C)(C)CN(C(=O)CCc2ccccc2)CC1=O` (stereo unspecified) belongs 0.943%. To `CN(C)CCOCC1CN(Cc2ccncc2)Cc2nnn(C)c21` (stereo unspecified) belongs 1.9%; to `NC(=O)[C@@H]1CCCN1C(=O)c1csc(-c2ccc(C(F)(F)F)cc2)n1`, 20.6%. To `Cc1ncc2c(n1)CN(CCCc1ccccc1)CC2` belongs 0.152%; to `CCNC(=O)NC(C)(C)C(=O)NCCc1csc2ccccc12`, 2.01%. Regarding `Cc1ccc(NC2CCN(C(=O)CCc3ccsc3)CC2)nn1`, the cytotoxicity at 70.5 h was -7.65%.

Turning to `c1ccc(-c2noc(CCCN3CCCC3Cn3cccn3)n2)cc1` (stereo unspecified), the cytotoxicity at 70.5 h worked out at 10.7%. As for `CCS(=O)(=O)N1CCN(CCn2cccn2)c2nc(C)ccc2C1`, the figure is -2.39%; as for `CC1CCCN(c2ncc(-c3ccccc3F)c(-c3nccn3C)n2)C1` (stereo unspecified), -12.5%. Take `Cc1nn(C)c2c(=O)n(C)c(NCC3CCCO3)nc12` (stereo unspecified): the cytotoxicity at 70.5 h is -3.29%. Regarding `CN(C)CC(=O)N1CCC2(CCN(Cc3ccccn3)C2=O)C1` (stereo unspecified), the cytotoxicity at 70.5 h is -22.9%. Consider `CC(C)c1nnc(NC(=O)N(C)Cc2ccncc2)s1`, for which the cytotoxicity at 70.5 h was -9.39%. In the case of `O=c1[nH]ncc(NCCOc2cccc(Br)c2)c1Cl`, the cytotoxicity at 70.5 h was -5.68%. `CCc1noc(CN2CCN(C(=O)C3CC3)CC2)n1`: the cytotoxicity at 70.5 h was -9.23%. Regarding `CNC(=O)c1ccc(NC(=O)NC(C)c2cc(C)oc2C)cc1` (stereo unspecified), the cytotoxicity at 70.5 h was -8.2%.

On to `Cc1nc(C)n(CCCNc2ncnc(C)c2C)n1`, for which the cytotoxicity at 70.5 h was determined as 18%. As to `CN(CCOc1ccc(C#N)cc1)CC1CCS(=O)(=O)C1` (stereo unspecified), the cytotoxicity at 70.5 h is -9.8%. As for `CN(C)c1ncc2c(n1)N(C)CCN(CC1CC1)C2=O`, the cytotoxicity at 70.5 h was -2.69%. As for `CC1CCc2sc(C(=O)Nc3cnn(C)c3)cc2C1` (stereo unspecified), the cytotoxicity at 70.5 h is -2.28%. To `O=S(=O)(c1cccc(F)c1)N1C[C@@H]2CC[C@H](C1)N(Cc1ccccc1)C2` belongs -12.7%; to `CCCN1C[C@H]2CC[C@@H]1CN(C(=O)Cn1c(C)cc(C)nc1=O)C2`, -14.9%; to `Cc1noc(C)c1CN(Cc1cccnc1)C1CN2CCC1CC2` (stereo unspecified), 25%. As to `CCN1CCN(c2ccc(CNC(=O)c3ccccc3F)cn2)CC1`, the cytotoxicity at 70.5 h was -0.777%.
